Measurements published in patent publication US20200022370A1, “MICROBIOCIDAL OXADIAZOLE DERIVATIVES” (SYNGENTA PARTICIPATIONS AG, priority 2016, published 2020).

What was measured:
Uromyces viciae-fabae = Uromyces viciae-fabae / field bean / leaf disc preventative (faba-bean rust); format: in vivo; conditions: foliar, 288 h, 100 ppm in the applied formulation, field bean leaf discs, inoculated two hours after application, vs untreated, 12 days after application, read-out: disease control
Experimental: Leaf disks or leaf segments of various plant species are cut from plants grown in a greenhouse. The cut leaf disks or segments are placed in multiwell plates (24-well format) onto water agar. The leaf disks are sprayed with a test solution before (preventative) or after (curative) inoculation. Compounds to be tested are prepared as DMSO solutions (max. 10 mg/ml) which are diluted to the appropriate concentration with 0.025% Tween20 just before spraying. The inoculated leaf disks or segments are incubated under defined conditions (temperature, relative humidity, light, etc.) according to the respective test system. A single evaluation of disease level is carried out 3 to 14 days after inoculation, depending on the pathosystem. Percent disease control relative to the untreated check leaf disks or segments is then calculated.
Example 5: Fungicidal Activity Against Uromyces viciae-fabael Field Bean/Leaf Disc Preventative (Faba-Bean Rust)
Field bean leaf discs are placed on water agar in multiwell plates (96-well format) and 10 μl of the Formulated test compound diluted in acetone and a spreader pipetted onto the leaf disc. Two hours after application leaf discs are inoculated by spraying a spore suspension on the lower leaf surface. The leaf discs are incubated in a climate cabinet at 22° C. with 18 hour day and 70% relative humidity. The activity of a compound is assessed as percent disease control compared to untreated when an appropriate level of disease damage appears in untreated check leaf disks (12 days after application).
The following compounds at 100 ppm in the applied Formulation give at least 80% disease control in this test when compared to untreated control leaf discs under the same conditions, which show extensive disease development.

Phakopsora pachyrhizi = Phakopsora pachyrhizi / soybean / leaf disc preventative (Asian soybean rust); format: in vivo; conditions: foliar, 200 ppm in the applied formulation, soybean leaf disks, inoculated one day after application, vs untreated, 12 to 14 days after application, read-out: disease control
Method in brief: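 Soybean leaf discs on water agar sprayed with formulated compound diluted in water, then inoculated one day later with spore suspension on the lower surface. Held 24-36 h dark at 20 °C, 75% rh, then 12 h light/day; percent disease control versus untreated scored 12-14 days after application.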

[1] = tested on: Glomerella lacenarium (Colletotrichum lacenarium); assay: Glomerella lacenarium (Colletotrichum lacenarium) liquid culture / cucumber / preventative (anthracnose); format: cell-based; conditions: 20 ppm, liquid culture in PDB, 24° C., inhibition of growth measured photometrically 3 to 4 days after application, vs untreated, read-out: disease control
Method in brief: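 Cryopreserved conidia in potato dextrose broth were added to test compound in a 96-well microtiter plate and incubated at 24 °C. Growth inhibition read photometrically 3–4 days after application, as percent activity versus untreated check.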

[2] = tested on: Puccinia recondita f. Sp. Tritici; assay: Puccinia recondita f. sp. tritici / wheat / leaf disc curative (brown rust); format: in vivo; conditions: foliar, 200 ppm in the applied formulation, wheat leaf segments cv. Kanzler, compound applied 1 day after inoculation, vs untreated, 6 to 8 days after application, read-out: disease control
Method in brief: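 Wheat leaf segments (cv. Kanzler) on agar inoculated with brown rust spores, held dark at 19 °C/75% RH, then sprayed 1 day post-inoculation with formulated compound diluted in water (curative). Incubated at 19 °C/75% RH, 12 h light/12 h dark; percent disease control versus untreated scored 6–8 days after application.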

[3] = tested on: Puccinia recondita f. Sp. Tritici; assay: Puccinia recondita f. sp. tritici / wheat / leaf disc preventative (brown rust); format: in vivo; conditions: foliar, 200 ppm in the applied formulation, wheat leaf segments cv. Kanzler, inoculated 1 day after application, vs untreated, 7 to 9 days after application, read-out: disease control
Method in brief: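 Preventative leaf-segment test on wheat cv. Kanzler: formulated compound diluted in water was sprayed onto segments on agar, with spore inoculation 1 day later. Incubated at 19° C, 75% rh, 12 h light/12 h dark; percent disease control versus untreated scored 7 to 9 days after application.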

In the case of O=C(Nc1ccc(-c2noc(C(F)(F)F)n2)cc1)c1cncc(N2CCOCC2)n1 [Compound 1.2, 6-morpholino-N-[4-[5-(trifluoromethyl)-1,2,4-oxadiazol-3-yl]phenyl]pyrazine-2-carboxamide], the pest or weed control at 100 ppm (Uromyces viciae-fabae) is reported as no less than 80% and the pest or weed control at 200 ppm (Phakopsora pachyrhizi) is reported as no less than 80%.

Compound CC12CCC(C(=O)Nc3ccc(-c4noc(C(F)(F)F)n4)cc3)(OC1=O)C2(C)C (centres unmarked) [Compound 1.4, 1,7,7-trimethyl-2-oxo-N-[4-[5-(trifluoromethyl)-1,2,4-oxadiazol-3-yl]phenyl]-3-oxabicyclo[2.2.1] heptane-4-carboxamide] has a pest or weed control at 100 ppm (Uromyces viciae-fabae) of no less than 80%, a pest or weed control at 200 ppm (Phakopsora pachyrhizi) of no less than 80% and an inhibition of growth at 20 ppm [1] of no less than 80%.

In the case of C#CC(C)(C)C(=O)Nc1ccc(-c2noc(C(F)(F)F)n2)cc1 [Compound 1.5, 2,2-dimethyl-N-[4-[5-(trifluoromethyl)-1,2,4-oxadiazol-3-yl]phenyl]but-3-ynamide], the pest or weed control at 100 ppm (Uromyces viciae-fabae) is reported as no less than 80%, the pest or weed control at 200 ppm [2] is reported as no less than 80% and the pest or weed control at 200 ppm (Phakopsora pachyrhizi) is reported as no less than 80%. For the same compound, the inhibition of growth at 20 ppm [1] was no less than 80% and the pest or weed control at 200 ppm [3] was no less than 80%.

Compound COc1cc(C(=O)Nc2ccc(-c3noc(C(F)(F)F)n3)cc2)cc(OC)c1OC [Compound 1.6, 3,4,5-trimethoxy-N-[4-[5-(trifluoromethyl)-1,2,4-oxadiazol-3-yl]phenyl]benzamide] has a pest or weed control at 100 ppm (Uromyces viciae-fabae) of no less than 80%, a pest or weed control at 200 ppm (Phakopsora pachyrhizi) of no less than 80% and a pest or weed control at 200 ppm [3] of no less than 80%.

Work on COc1cc(CCC(=O)Nc2ccc(-c3noc(C(F)(F)F)n3)cc2)cc(OC)c1OC [Compound 1.13, N-[4-[5-(trifluoromethyl)-1,2,4-oxadiazol-3-yl]phenyl]-3-(3,4,5-trimethoxyphenyl) propanamide] yielded a pest or weed control at 100 ppm (Uromyces viciae-fabae) of no less than 80%, an inhibition of growth at 20 ppm [1] of no less than 80% and a pest or weed control at 200 ppm [3] of no less than 80%.

For O=C(Nc1ccc(-c2noc(C(F)(F)F)n2)cc1)C(F)c1ccccc1 (centres unmarked) [Compound 1.16, 2-fluoro-2-phenyl-N-[4-[5-(trifluoromethyl)-1,2,4-oxadiazol-3-yl]phenyl]acetamide], the pest or weed control at 100 ppm (Uromyces viciae-fabae) was no less than 80%, the pest or weed control at 200 ppm (Phakopsora pachyrhizi) was no less than 80% and the inhibition of growth at 20 ppm [1] was no less than 80%. For the same compound, the pest or weed control at 200 ppm [3] was no less than 80%.

In the case of O=C(CCC(F)(F)F)Nc1ccc(-c2noc(C(F)(F)F)n2)cc1 [Compound 1.20, 4,4,4-trifluoro-N-[4-[5-(trifluoromethyl)-1,2,4-oxadiazol-3-yl]phenyl]butanamide], the pest or weed control at 100 ppm (Uromyces viciae-fabae) is reported as no less than 80%, the pest or weed control at 200 ppm (Phakopsora pachyrhizi) is reported as no less than 80% and the inhibition of growth at 20 ppm [1] is reported as no less than 80%. The pest or weed control at 200 ppm [3] was no less than 80%.

O=C(Cn1cncn1)Nc1ccc(-c2noc(C(F)(F)F)n2)cc1 [Compound 1.23, 2-(1,2,4-triazol-1-yl)-N-[4-[5-(trifluoromethyl)-1,2,4-oxadiazol-3-yl]phenyl]acetamide] showed a pest or weed control at 100 ppm (Uromyces viciae-fabae) of no less than 80%, an inhibition of growth at 20 ppm [1] of no less than 80% and a pest or weed control at 200 ppm [3] of no less than 80%.

For CC(C)NC(=O)c1c(F)cccc1C(=O)Nc1ccc(-c2noc(C(F)(F)F)n2)cc1 [Compound 1.29, 3-fluoro-N2-isopropyl-N1-[4-[5-(trifluoromethyl)-1,2,4-oxadiazol-3-yl]phenyl] phthalamide], the pest or weed control at 100 ppm (Uromyces viciae-fabae) was no less than 80%, the pest or weed control at 200 ppm (Phakopsora pachyrhizi) was no less than 80% and the inhibition of growth at 20 ppm [1] was no less than 80%. It also gave a pest or weed control at 200 ppm [3] of no less than 80%.

Work on COC1=CC(=O)CC(C(=O)Nc2ccc(-c3noc(C(F)(F)F)n3)cc2)C1 (centres unmarked) [Compound 1.31, 3-methoxy-5-oxo-N-[4-[5-(trifluoromethyl)-1,2,4-oxadiazol-3-yl]phenyl]cyclohex-3-ene-1-carboxamide] yielded a pest or weed control at 100 ppm (Uromyces viciae-fabae) of no less than 80%, a pest or weed control at 200 ppm (Phakopsora pachyrhizi) of no less than 80% and an inhibition of growth at 20 ppm [1] of no less than 80%. The pest or weed control at 200 ppm [3] was no less than 80%.

With CC(C)(C(=O)Nc1ccc(-c2noc(C(F)(F)F)n2)cc1)c1ncc(Cl)cc1Cl [Compound 1.32, 2-(3,5-dichloro-2-pyridyl)-2-methyl-N-[4-[5-(trifluoromethyl)-1,2,4-oxadiazol-3-yl]phenyl] propanamide] the pest or weed control at 100 ppm (Uromyces viciae-fabae) was no less than 80% and the pest or weed control at 200 ppm [3] was no less than 80%.

CC1Cc2c(Br)ccc(C(=O)Nc3ccc(-c4noc(C(F)(F)F)n4)cc3)c2S1(=O)=O (centres unmarked) [Compound 1.39, 4-bromo-2-methyl-1,1-dioxo-N-[4-[5-(trifluoromethyl)-1,2,4-oxadiazol-3-yl]phenyl]-2,3-dihydrobenzo-thiophene-7-carboxamide] showed a pest or weed control at 100 ppm (Uromyces viciae-fabae) of no less than 80% and an inhibition of growth at 20 ppm [1] of no less than 80%.

With CC(=O)N(C(C)=O)c1ccc(-c2noc(C(F)(F)F)n2)cn1 [Compound 1.45, N-acetyl-N-[5-[5-(trifluoromethyl)-1,2,4-oxadiazol-3-yl]-2-pyridyl]acetamide] the pest or weed control at 100 ppm (Uromyces viciae-fabae) was no less than 80%, the pest or weed control at 200 ppm [2] was no less than 80% and the pest or weed control at 200 ppm (Phakopsora pachyrhizi) was no less than 80%. For the same compound, the inhibition of growth at 20 ppm [1] was no less than 80% and the pest or weed control at 200 ppm [3] was no less than 80%.

Compound CC(=O)N(CC(=O)NC(C)(C)C)c1ccc(-c2noc(C(F)(F)F)n2)cc1 [Compound 1.56, 2-[N-acetyl-4-[5-(trifluoromethyl)-1,2,4-oxadiazol-3-yl]anilino]-N-tert-butyl-acetamide] has a pest or weed control at 100 ppm (Uromyces viciae-fabae) of no less than 80%, a pest or weed control at 200 ppm [2] of no less than 80% and an inhibition of growth at 20 ppm [1] of no less than 80%. The pest or weed control at 200 ppm [3] was no less than 80%.

With CCC(=O)N(CC(=O)NC(C)(C)C)c1ccc(-c2noc(C(F)(F)F)n2)cc1 [Compound 1.57, N-[2-(tert-butylamino)-2-oxo-ethyl]-N-[4-[5-(trifluoromethyl)-1,2,4-oxadiazol-3-yl]phenyl] propanamide] the pest or weed control at 100 ppm (Uromyces viciae-fabae) was no less than 80%, the inhibition of growth at 20 ppm [1] was no less than 80% and the pest or weed control at 200 ppm [3] was no less than 80%.

In the case of COCC(=O)N(CC(=O)NC(C)(C)C)c1ccc(-c2noc(C(F)(F)F)n2)cc1 [Compound 1.58, N-tert-butyl-2-[N-(2-methoxyacetyl)-4-[5-(trifluoromethyl)-1,2,4-oxadiazol-3-yl]anilino]acetamide], the pest or weed control at 100 ppm (Uromyces viciae-fabae) is reported as no less than 80% and the pest or weed control at 200 ppm [3] is reported as no less than 80%.

With CON(C)C(=O)Nc1ccc(-c2noc(C(F)(F)F)n2)cn1 [Compound 1.64, 1-methoxy-1-methyl-3-[5-[5-(trifluoromethyl)-1,2,4-oxadiazol-3-yl]-2-pyridyl]urea] the melting point was 83 to 87 °C, the inhibition of growth at 20 ppm [1] was no less than 80% and the pest or weed control at 200 ppm [3] was no less than 80%.

Compound CC(C)=CCONC(=O)Nc1ccc(-c2noc(C(F)(F)F)n2)cc1 [Compound 1.66, 1-(3-methylbut-2-enoxy)-3-[4-[5-(trifluoromethyl)-1,2,4-oxadiazol-3-yl]phenyl]urea] has a melting point of 118 to 121 °C, an inhibition of growth at 20 ppm [1] of no less than 80% and a pest or weed control at 200 ppm [3] of no less than 80%.

CON(CC1CC1)C(=O)Nc1ccc(-c2noc(C(F)(F)F)n2)cc1 [Compound 1.69, 1-(cyclopropylmethyl)-1-methoxy-3-[4-[5-(trifluoromethyl)-1,2,4-oxadiazol-3-yl]phenyl]urea] showed a melting point of 117 to 120 °C and an inhibition of growth at 20 ppm [1] of no less than 80%.

O=C(NOCc1ccccc1F)Nc1ccc(-c2noc(C(F)(F)F)n2)cc1 [Compound 1.127, 1-[(2-fluorophenyl)methoxy]-3-[4-[5-(trifluoromethyl)-1,2,4-oxadiazol-3-yl]phenyl]urea] showed a melting point of 140 to 143 °C and an inhibition of growth at 20 ppm [1] of no less than 80%.

For CN(C(=O)C1CCC1)c1ccc(-c2noc(C(F)(F)F)n2)cc1 [Compound 2.25, N-methyl-N-[4-[5-(trifluoromethyl)-1,2,4-oxadiazol-3-yl]phenyl]cyclobutane-carboxamide], the pest or weed control at 100 ppm (Uromyces viciae-fabae) was no less than 80%, the pest or weed control at 200 ppm [2] was no less than 80% and the pest or weed control at 200 ppm (Phakopsora pachyrhizi) was no less than 80%. It also gave an inhibition of growth at 20 ppm [1] of no less than 80% and a pest or weed control at 200 ppm [3] of no less than 80%.

CONC(=O)Nc1ccc(-c2noc(C(F)(F)F)n2)cc1 [Compound 2.30, 1-methoxy-3-[4-[5-(trifluoromethyl)-1,2,4-oxadiazol-3-yl]phenyl]urea] showed a melting point of 152 to 155 °C, an inhibition of growth at 20 ppm [1] of no less than 80% and a pest or weed control at 200 ppm [3] of no less than 80%.
